In patent publication US8334316B2, “Substituted organosulfur compounds and methods of using thereof” (ACEA Biosciences, Inc., priority 2004, dated 2012):
Where “and” joins values, the source holds several entries; their conditions need not be identical. Identical values can stand only once.

Tests used:
HCT-8 human colon cancer = HCT-8 human colon cancer xenograft in nude mice (Example 3); format: in vivo; details: 50 mg/kg/d iv x7 qd
Source text: Both male and female mice were used. […] Test control. […] Preparation and Administration of Test Compounds. […] For human tumor xenograft model, all used materials, including animal food, animal cage, supporting materials and apparatus contacted by animals, were high-pressure sterilized. Nude mice were maintained in laminar flow shelves under SPF condition. After tumor transplantation, mouse weight and tumor size in each compound dosage group were dynamically monitored and plotted.

[1] = test system: P388 lymphocytic leukemia; experiment: Murine P388 lymphocytic leukemia model (intraperitoneal transplantation), life span; format: in vivo, mouse; details: for Average life span X ± SD: observed within 30 days; for Life span ratio %: vs solvent control
Procedure: Both male and female mice were used.
Preparation and Administration of Test Compounds.
To prepare cancer cells for the P388 murine lymphocytic leukemia model, ascites of a P388 leukemia-bearing mouse were removed under sterile condition. The ascites were diluted in normal saline (1:6 for ascites to normal saline) to prepare cell suspension. 0.2 mL of the cell suspension was then injected intraperitoneally. […] The life span of carrier mice was determined within 30 days. The life span ratio comparing to the negative control group of the carrier mice in each compound treatment group was calculated according to the formula: Life span ratio %=average life span for the compound treatment group/average life span for the negative control group×100% (4)

[2] = test system: ao10/17 human ovarian cancer; experiment: ao10/17 human ovarian cancer xenograft in nude mice (Example 4); format: in vivo; details: for tumor inhibition rate %: vs solvent control
Procedure: Only female mice were used in this study. […] The high, middle and low doses of ACEA100108 were 50, […] and 8 mg/kg/d, respectively.
Preparation and Administration of Test Compounds. […] The high, middle and low dose of compound ACEA100108 was 50, 20 and 8 mg/kg, respectively.
The tumor tissues were grounded in normal saline (1:6 for tumor volume to saline volume) and tumor cell suspensions were prepared in the normal saline.
For the human ovarian cancer xenograft model, all used materials, including animal food, animal cage, supporting materials and apparatus contacted by animals, were high-pressure sterilized. Nude mice were maintained in laminar flow shelves under SPF condition. After tumor transplantation, mouse weight and tumor size in each compound dosage group were dynamically monitored and plotted. The tumor size was determined by measuring the major axis (a) and minor axis (b) of the tumor, and tumor volume was calculated according to the equation (3) in Example 3.

[3] = 8 mg/kg iv x7 qd, 7 D after transplantation
[4] = 20 mg/kg iv x7 qd, 7 D after transplantation
[5] = 50 mg/kg iv x7 qd, 7 D after transplantation

Question: Which “Tumor volume (cm^3)” value (HCT-8 human colon cancer; 14 d) does the source give for `Fc1ccc(CSSSCc2ccc(F)cc2)cc1` [ACEA100108, Di(p-fluorobenzyl)trisulfide] here?
Answer: 0.112 ± 0.02 cm^3

Question: What about the “Mouse Body weight” value (HCT-8 human colon cancer; 21 d) of the same molecule?
Answer: 19.5 ± 1.6 g

Question: What about the “Tumor volume (cm^3)” value (HCT-8 human colon cancer; 21 d) of the same molecule?
Answer: 0.236 ± 0.02 cm^3

Question: And the “Mouse Body weight” value (HCT-8 human colon cancer; 25 d (end))?
Answer: 20.3 g and 20.3 ± 1 g

Question: What about the “Tumor volume (cm^3)” value (HCT-8 human colon cancer; 25 d (end)) of the same molecule?
Answer: 0.525 cm^3 and 0.525 ± 0.14 cm^3

Question: And the “tumor inhibition rate %” value (HCT-8 human colon cancer; vs solvent control)?
Answer: 45.62%

Question: And the “animal No. beginning/end (survivors)” value ([1]; 12.5 mg/kg/d iv x7 qd)?
Answer: 10/0

Question: And the “Average life span X ± SD” value ([1]; 12.5 mg/kg/d iv x7 qd)?
Answer: 10.6 ± 0.84

Question: And the “Life span ratio %” value ([1]; 12.5 mg/kg/d iv x7 qd)?
Answer: 109.28%

Question: What about the “animal No. beginning/end (survivors)” value ([1]; 25 mg/kg/d iv x7 qd) of the same molecule?
Answer: 10/0

Question: What about the “Average life span X ± SD” value ([1]; 25 mg/kg/d iv x7 qd) of the same molecule?
Answer: 10.4 ± 1.17

Question: And the “Life span ratio %” value ([1]; 25 mg/kg/d iv x7 qd)?
Answer: 107.22%

Question: And the “animal No. beginning/end (survivors)” value ([1]; 50 mg/kg/d iv x7 qd)?
Answer: 10/0

Question: What about the “Average life span X ± SD” value ([1]; 50 mg/kg/d iv x7 qd) of the same molecule?
Answer: 10.3 ± 0.95

Question: What about the “Life span ratio %” value ([1]; 50 mg/kg/d iv x7 qd) of the same molecule?
Answer: 106.18%

Question: And the “Anticancer effect on P388 mouse leukemia model” value ([1]; 50, 25, 12.5 mg/kg iv x7 qd)?
Answer: did not exhibit anticancer effect

Question: And the “Body weight of mice” value ([2]; 8 mg/kg iv x7 qd, 0 d (beginning))?
Answer: 17.7 g and 17.7 ± 0.5 g

Question: What about the “Mice with palpable tumor / total mice” value [2, 3] of the same molecule?
Answer: 3/6

Question: And the “Tumor volume (cm^3)” value [2, 3]?
Answer: 0.01 cm^3

Question: And the “Body weight of mice” value ([2]; 8 mg/kg iv x7 qd, 7 d)?
Answer: 19 ± 0.6 g

Question: What about the “Body weight of mice” value ([2]; 8 mg/kg iv x7 qd, 14 d) of the same molecule?
Answer: 20.5 ± 1 g

Question: What about the “Tumor volume (cm^3)” value ([2]; 8 mg/kg iv x7 qd, 14 d) of the same molecule?
Answer: 0.048 ± 0.03 cm^3

Question: What about the “Body weight of mice” value ([2]; 8 mg/kg iv x7 qd, 21 d) of the same molecule?
Answer: 21.2 ± 0.8 g

Question: What about the “Tumor volume (cm^3)” value ([2]; 8 mg/kg iv x7 qd, 21 d) of the same molecule?
Answer: 0.249 ± 0.05 cm^3

Question: What about the “Tumor volume (cm^3)” value ([2]; 8 mg/kg iv x7 qd, 24 d) of the same molecule?
Answer: 0.89 ± 0.39 cm^3

Question: And the “Body weight of mice” value ([2]; 8 mg/kg iv x7 qd, 24 d (end))?
Answer: 22.2 g and 22.2 ± 0.8 g

Question: What about the “Tumor weight” value ([2]; 8 mg/kg/d iv x7 qd) of the same molecule?
Answer: 0.942 ± 0.14 g

Question: And the “tumor inhibition rate %” value ([2]; 8 mg/kg/d iv x7 qd)?
Answer: 33.19%

Question: And the “Mice with palpable tumor / total mice” value [2, 4]?
Answer: 2/6

Question: And the “Tumor volume (cm^3)” value [2, 4]?
Answer: 0.01 cm^3

Question: And the “Body weight of mice” value ([2]; 20 mg/kg iv x7 qd, 7 d)?
Answer: 18.3 ± 0.8 g

Question: And the “Body weight of mice” value ([2]; 20 mg/kg iv x7 qd, 14 d)?
Answer: 19.8 ± 0.8 g

Question: And the “Tumor volume (cm^3)” value ([2]; 20 mg/kg iv x7 qd, 14 d)?
Answer: 0.03 ± 0.02 cm^3

Question: What about the “Body weight of mice” value ([2]; 20 mg/kg iv x7 qd, 21 d) of the same molecule?
Answer: 20.5 ± 1 g

Question: And the “Tumor volume (cm^3)” value ([2]; 20 mg/kg iv x7 qd, 21 d)?
Answer: 0.206 ± 0.03 cm^3

Question: And the “Tumor volume (cm^3)” value ([2]; 20 mg/kg iv x7 qd, 24 d)?
Answer: 0.402 ± 0.1 cm^3

Question: And the “Body weight of mice” value ([2]; 20 mg/kg iv x7 qd, 24 d (end))?
Answer: 22.0 g and 22.0 ± 1.4 g

Question: What about the “Tumor weight” value ([2]; 20 mg/kg/d iv x7 qd) of the same molecule?
Answer: 0.752 ± 0.12 g

Question: And the “tumor inhibition rate %” value ([2]; 20 mg/kg/d iv x7 qd)?
Answer: 46.67%

Question: And the “Body weight of mice” value ([2]; 50 mg/kg iv x7 qd, 0 d (beginning))?
Answer: 17.2 g and 17.2 ± 0.8 g

Question: What about the “Mice with palpable tumor / total mice” value [2, 5] of the same molecule?
Answer: 1/6

Question: And the “Tumor volume (cm^3)” value [2, 5]?
Answer: 0.01 cm^3

Question: And the “Body weight of mice” value ([2]; 50 mg/kg iv x7 qd, 7 d)?
Answer: 16.7 ± 0.8 g

Question: And the “Body weight of mice” value ([2]; 50 mg/kg iv x7 qd, 14 d)?
Answer: 17.8 ± 1.5 g

Question: What about the “Mice with palpable tumor / total mice” value ([2]; 50 mg/kg iv x7 qd, 14 d) of the same molecule?
Answer: 6/6

Question: What about the “Tumor volume (cm^3)” value ([2]; 50 mg/kg iv x7 qd, 14 d) of the same molecule?
Answer: 0.01 cm^3

Question: And the “Body weight of mice” value ([2]; 50 mg/kg iv x7 qd, 21 d)?
Answer: 19.3 ± 1 g

Question: What about the “Tumor volume (cm^3)” value ([2]; 50 mg/kg iv x7 qd, 21 d) of the same molecule?
Answer: 0.148 ± 0.02 cm^3

Question: What about the “Tumor volume (cm^3)” value ([2]; 50 mg/kg iv x7 qd, 24 d) of the same molecule?
Answer: 0.316 ± 0.06 cm^3

Question: And the “Body weight of mice” value ([2]; 50 mg/kg iv x7 qd, 24 d (end))?
Answer: 21.3 g and 21.3 ± 1.2 g

Question: What about the “Tumor weight” value ([2]; 50 mg/kg/d iv x7 qd) of the same molecule?
Answer: 0.657 ± 0.13 g

Question: And the “tumor inhibition rate %” value ([2]; 50 mg/kg/d iv x7 qd)?
Answer: 53.40%
